Literature values as cited in patent publication US20040043073A1, “Pharmaceutical compositions for drugs having pH-dependent solubility” (priority 2002, published 2004).
Read-outs that look alike come from different tables or passages of the source.

CC[C@H]1OC(=O)[C@H](C)[C@@H](O[C@H]2C[C@@](C)(OC)[C@@H](O)[C@H](C)O2)[C@H](C)[C@@H](O[C@@H]2O[C@H](C)C[C@H](N(C)C)[C@H]2O)[C@](C)(OC)C[C@@H](C)C(=O)[C@H](C)[C@@H](O)[C@]1(C)O [clarithromycin, 6-O-methylerythromycin A]
solubility (in the stomach (pH 1.2)): very soluble | solubility (lower small intestine (pH 6 to 8)): solubility decreases | solubility (upper region of the small intestine (pH 5.0)): fairly soluble
